According to patent US11053219B2, “Substituted pyridines as TYK2 inhibitors” (FronThera U.S. Pharmaceuticals LLC, priority 2018, dated 2021):
Read-outs that look alike come from different tables or passages of the source.

Assays:
[1] = molecular target: TYK2 (JH2 domain) (Homo sapiens (Human), UniProt P29597); assay: TYK2 JH2 domain binding assay (DiscoverX KINOMEscan); settings: 11-point 3-fold dilution, duplicate
[2] = test system: IL12-induced p-STAT4 in human PBMC; assay: IL-12 induced pSTAT4 in human PBMC; format: cell-based; settings: read-out: p-STAT4 IC50
[3] = test system: INFα induced pSTAT3 in human PBMC; assay: INFα induced pSTAT3 in human PBMC; format: cell-based; settings: read-out: p-STAT3 IC50
Procedure: Fresh Human PBMCs were resuspended in RPMI 1640 medium with 10% FBS. Cells were seeded in a round bottom 96-well plate at the concentration of 200,000 cells/well. A 10-point dilution series of test compound (top dose 10 uM, 1:5 dilution) was added to the well using the liquid dispenser (Tecan D300e) and incubated for 1 hour at 37 C. Then human INFα recombinant protein (R&D Systems) was added to the well at the final concentration of 5000 units/ml and incubated for 15 minutes at 37 C. Cell lysates were prepared and analyzed by Phospho STAT3 (Tyr705) cellular kit (Cisbio) or Phospho STAT5 (Tyr693) Kit (Meso Scale Discovery) following manufacturer's protocol.
For calculation of the inhibition rate, the relative pSTAT signal of each well=pSTAT signal of each well−the average pSTAT signal of baseline. The inhibition %=(the average pSTAT signal of INFα treatment wells−the relative of pSTAT signal in each compound containing well)/the average pSTAT signal of INFα treatment wells*100%
The curve was plotted as the inhibition % (y-axis) vs. compounds concentration (x-axis) and was fitted with log(inhibitor) vs. normalized response—Variable slope by GraphPad Prism7.0.

Sequence of TYK2 (JH2 domain) (P29597 589-875): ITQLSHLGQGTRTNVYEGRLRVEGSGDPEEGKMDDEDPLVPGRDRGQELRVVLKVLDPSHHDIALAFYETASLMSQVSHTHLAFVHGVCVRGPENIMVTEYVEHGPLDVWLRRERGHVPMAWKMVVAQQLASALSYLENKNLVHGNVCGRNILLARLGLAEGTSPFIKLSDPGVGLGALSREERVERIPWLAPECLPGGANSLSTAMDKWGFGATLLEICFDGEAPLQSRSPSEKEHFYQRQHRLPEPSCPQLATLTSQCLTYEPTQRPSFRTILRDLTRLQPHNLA

Row | Kd [1] [µM] | SMILES | IC50 ([2]; human PBMC, IL-12 10 ng/ml) [µM] | IC50 ([3]; human PBMC, INFα 5000 units/ml) [µM] | IC50 ([2]; Homo sapiens, PBMC) [µM] | IC50 ([3]; Homo sapiens, PBMC) [µM]
1 | 0.001 to 0.005 | [2H]C([2H])([2H])NC(=O)c1nnc(N2CC(F)(F)C2=O)cc1Nc1cccc(-c2ncn(C)n2)c1OC [Example 57] | 1 to 10 | 1 to 10 | – | –
2 | 0.001 to 0.005 | CNC(=O)c1nnc(N2CCCC2=O)cc1Nc1cccc(-c2ncn(C)n2)c1OC [Example 59] | 1 to 10 | 1 to 10 | – | –
3 | 0.001 to 0.005 | [2H]C([2H])([2H])NC(=O)c1nnc(N2CCOC2=O)cc1Nc1cccc(-c2ncn(C)n2)c1OC [Example 60] | > 10 | > 10 | – | –
4 | 0.001 to 0.005 | [2H]C([2H])([2H])NC(=O)c1nnc(N2CCC(C#N)(C3CC3)C2=O)cc1Nc1cccc(-c2ncn(C)n2)c1OC (stereo not shown) [Example 61] | 1 to 10 | 1 to 10 | – | –
5 | 0.005 to 0.01 | [2H]C([2H])([2H])NC(=O)c1nnc(N2CC(C)(C)C2)cc1Nc1cccc(-c2ncn(C)n2)c1OC [Example 62] | 1 to 10 | 1 to 10 | – | –
6 | ≤ 0.001 | [2H]C([2H])([2H])NC(=O)c1nnc(-n2ccn(C)c2=O)cc1Nc1cccc(-c2ncn(C)n2)c1OC [Example 63] | 0.1 to 1 | 0.1 to 1 | – | –
7 | ≤ 0.001 | [2H]C([2H])([2H])NC(=O)c1nnc(N2CCC(C)C2=O)cc1Nc1cccc(-c2ncn(C)n2)c1OC (stereo not shown) [Example 64] | 0.1 to 1 | 0.1 to 1 | – | –
8 | ≤ 0.001 | [2H]C([2H])([2H])NC(=O)c1nnc(N2CCN(CC(F)(F)F)C2=O)cc1Nc1cccc(-c2ncn(C)n2)c1OC [Example 67] | < 0.1 | 0.1 to 1 | – | –
9 | ≤ 0.001 | [2H]C([2H])([2H])NC(=O)c1nnc(N2CCN(CC3CC3)C2=O)cc1Nc1cccc(-c2ncn(C)n2)c1OC [Example 68] | < 0.1 | < 0.1 | – | –
10 | ≤ 0.001 | [2H]C([2H])([2H])NC(=O)c1nnc(N2CCN(CC#N)C2=O)cc1Nc1cccc(-c2ncn(C)n2)c1OC [Example 69] | < 0.1 | < 0.1 | – | –
11 | ≤ 0.001 | [2H]C([2H])([2H])NC(=O)c1nnc(N2CCN(CC3CCOC3)C2=O)cc1Nc1cccc(-c2ncn(C)n2)c1OC (stereo not shown) [Example 71] | 0.1 to 1 | 0.1 to 1 | – | –
12 | ≤ 0.001 | [2H]C([2H])([2H])NC(=O)c1nnc(N2CCN(CC3(C)COC3)C2=O)cc1Nc1cccc(-c2ncn(C)n2)c1OC [Example 72] | < 0.1 | 0.1 to 1 | – | –
13 | ≤ 0.001 | [2H]C([2H])([2H])NC(=O)c1nnc(N2CCN(CC3CCCO3)C2=O)cc1Nc1cccc(-c2ncn(C)n2)c1OC (stereo not shown) [Example 74] | < 0.1 | < 0.1 | – | –
14 | 0.001 to 0.005 | [2H]C([2H])([2H])NC(=O)c1nnc(N2CCN(c3ccccc3)C2=O)cc1Nc1cccc(-c2ncn(C)n2)c1OC [Example 77] | 0.1 to 1 | 1 to 10 | – | –

The next lines start with the compound.

Row | SMILES | Kd [1] [µM] | IC50 ([2]; human PBMC, IL-12 10 ng/ml) [µM] | IC50 ([3]; human PBMC, INFα 5000 units/ml) [µM] | IC50 ([2]; Homo sapiens, PBMC) [µM] | IC50 ([3]; Homo sapiens, PBMC) [µM]
15 | [2H]C([2H])([2H])NC(=O)c1nnc(N2CCNC2=O)cc1Nc1cccc(-c2ncn(C)n2)c1OC [Example 1, 4-[2-methoxy-3-(1-methyl-1,2,4-triazol-3-yl)anilino]-6-(2-oxoimidazolidin-1-yl)-N-(trideuteriomethyl)pyridazine-3-carboxamide] | ≤ 0.001 | < 0.1 | 0.1 to 1 | – | –
16 | [2H]C([2H])([2H])NC(=O)c1nnc(N2CCN(C)C2=O)cc1Nc1cccc(-c2ncn(C)n2)c1OC [Example 2, 4-[2-methoxy-3-(1-methyl-1,2,4-triazol-3-yl)anilino]-6-(3-methyl-2-oxo-imidazolidin-1-yl)-N-(trideuteriomethyl)pyridazine-3-carboxamide] | ≤ 0.001 | < 0.1 | 0.1 to 1 | – | –
17 | [2H]C([2H])([2H])NC(=O)c1nnc(N2CCC2=O)cc1Nc1cccc(-c2ncn(C)n2)c1OC [Example 3, 4-[2-methoxy-3-(1-methyl-1,2,4-triazol-3-yl)anilino]-N-methyl-6-(2-oxoazetidin-1-yl) pyridazine-3-carboxamide] | 0.005 to 0.01 | 0.1 to 1 | 1 to 10 | – | –
18 | [2H]C([2H])([2H])NC(=O)c1nnc(N2CCC3(CC3)C2=O)cc1Nc1cccc(-c2ncn(C)n2)c1OC [Example 4, 4-[2-methoxy-3-(1-methyl-1,2,4-triazol-3-yl)anilino]-6-(4-oxo-5-azaspiro[2.4]heptan-5-yl)-N-(trideuteriomethyl)pyridazine-3-carboxamide] | ≤ 0.001 | < 0.1 | 0.1 to 1 | – | –
19 | [2H]C([2H])([2H])NC(=O)c1nnc(N2CCN(C3CC3)C2=O)cc1Nc1cccc(-c2ncn(C)n2)c1OC [Example 5, 6-(3-cyclopropyl-2-oxo-imidazolidin-1-yl)-4-[2-methoxy-3-(1-methyl-1,2,4-triazol-3-yl)anilino]-N-(trideuteriomethyl)pyridazine-3-carboxamide] | ≤ 0.001 | < 0.1 | 0.1 to 1 | – | –
20 | [2H]C([2H])([2H])NC(=O)c1nnc(N2CCC(C)(C)C2=O)cc1Nc1cccc(-c2ncn(C)n2)c1OC [Example 7, 6-(3,3-dimethyl-2-oxo-pyrrolidin-1-yl)-4-[2-methoxy-3-(1-methyl-1,2,4-triazol-3-yl)anilino]-N-(trideuteriomethyl)pyridazine-3-carboxamide] | – | 0.1 to 1 | 0.1 to 1 | – | –
21 | [2H]C([2H])([2H])NC(=O)c1nnc(N2CCN(CC(F)F)C2=O)cc1Nc1cccc(-c2ncn(C)n2)c1OC [Example 8, 6-[3-(2,2-difluoroethyl)-2-oxo-imidazolidin-1-yl]-4-[2-methoxy-3-(1-methyl-1,2,4-triazol-3-yl)anilino]-N-(trideuteriomethyl)pyridazine-3-carboxamide; 2,2,2-trifluoroacetic acid] | ≤ 0.001 | – | – | < 0.1 | < 0.1
22 | [2H]C([2H])([2H])NC(=O)c1nnc(N2CCN(CCOC)C2=O)cc1Nc1cccc(-c2ncn(C)n2)c1OC [Example 9, 6-[3-(2-methoxyethyl)-2-oxo-imidazolidin-1-yl]-4-[2-methoxy-3-(1-methyl-1,2,4-triazol-3-yl)anilino]-N-(trideuteriomethyl)pyridazine-3-carboxamide] | ≤ 0.001 | < 0.1 | 0.1 to 1 | – | –
23 | [2H]C([2H])([2H])NC(=O)c1nnc(N2CCN(CC)C2=O)cc1Nc1cccc(-c2ncn(C)n2)c1OC [Example 12, 6-(3-ethyl-2-oxo-imidazolidin-1-yl)-4-[2-methoxy-3-(1-methyl-1,2,4-triazol-3-yl)anilino]-N-(trideuteriomethyl)pyridazine-3-carboxamide] | ≤ 0.001 | – | – | < 0.1 | < 0.1
24 | [2H]C([2H])([2H])NC(=O)c1nnc(N2CCN(C(C([2H])([2H])[2H])C([2H])([2H])[2H])C2=O)cc1Nc1cccc(-c2ncn(C)n2)c1OC [Example 13, 6-(3-isopropyl-2-oxo-imidazolidin-1-yl)-4-[2-methoxy-3-(1-methyl-1,2,4-triazol-3-yl)anilino]-N-(trideuteriomethyl)pyridazine-3-carboxamide] | – | – | – | < 0.1 | < 0.1
25 | [2H]C([2H])([2H])NC(=O)c1c(Nc2cccc(-c3ncn(C)n3)c2OC)cc(NC(=O)C2CC2)nc1F [Example 23] | ≤ 0.001 | 0.1 to 1 | 0.1 to 1 | – | –
26 | COc1c(Nc2cc(NC(=O)C3CC3)nnc2C(C)=O)cccc1-c1ncn(C)n1 [Example 24] | 0.001 to 0.005 | 0.1 to 1 | 0.1 to 1 | – | –
27 | CCC(=O)c1nnc(NC(=O)C2CC2)cc1Nc1cccc(-c2ncn(C)n2)c1OC [Example 25] | ≤ 0.001 | 0.1 to 1 | 0.1 to 1 | – | –
28 | COc1c(Nc2cc(NC(=O)C3CC3)nnc2C(=O)C2CC2)cccc1-c1ncn(C)n1 [Example 26] | ≤ 0.001 | < 0.1 | 0.1 to 1 | – | –
29 | COc1c(Nc2cc(NC(=O)C3CC3)nc3ncn(C)c(=O)c23)cccc1-c1ncn(C)n1 [Example 39] | 0.005 to 0.01 | 0.1 to 1 | 0.1 to 1 | – | –
30 | [2H]C([2H])([2H])NC(=O)c1nnc(N/C(=N/O)C2CC2)cc1Nc1cccc(-c2ncn(C)n2)c1OC [Example 40] | ≤ 0.001 | 0.1 to 1 | 0.1 to 1 | – | –
31 | COc1c(Nc2cc(NC(=O)C3CC3)nc3c2C2=NC(=O)CN2C3)cccc1-c1ncn(C)n1 [Example 41] | 0.001 to 0.005 | 1 to 10 | 1 to 10 | – | –
32 | [2H]C([2H])([2H])NC(=O)c1c(Nc2cccc(-c3nnn(C)n3)c2OC)cc(NC(=O)C2CC2)nc1F [Example 42] | 0.001 to 0.005 | 0.1 to 1 | 1 to 10 | – | –
33 | COc1c(Nc2cc(NC(=O)C3CC3)nc3c2C(=O)NC3)cccc1-c1ncn(C)n1 [Example 43] | 0.005 to 0.01 | > 10 | 1 to 10 | – | –
34 | COc1c(Nc2cc(NC(=O)C3CC3)nnc2C(=O)C(F)F)cccc1-c1ncn(C)n1 [Example 44] | 0.001 to 0.005 | 0.1 to 1 | 1 to 10 | – | –
35 | COc1c(Nc2cc(NC(=O)C3CC3)nc3cn(C)nc23)cccc1-c1ncn(C)n1 [Example 55] | 0.001 to 0.005 | 0.1 to 1 | 0.1 to 1 | – | –
36 | [2H]C([2H])([2H])NC(=O)c1nnc(N2CCCC2=O)cc1Nc1cccc(-c2ncn(C)n2)c1OC [Example 56] | 0.001 to 0.005 | 0.1 to 1 | 1 to 10 | – | –
